Read-outs that look alike come from different tables or passages of the source.
Legend:
HT-29 cells [1] = experiment: HT-29 cell death (MTT) with DNA damaging agents, alone or with […]; assay type: cell-based, human; conditions: for apoptosis as relative cell death, low doses: 0.5 μg/mL DOX, CIS, 1 μg/mL 5-Fu, 0.6 μg/mL IRINO, 24 h pretreatment then 24 h drug alone or with TRAILPEG 1 μg/mL; for TRAIL-induced apoptosis, sub-lethal dose combined with TRAILPEG versus drug alone: DOX 2, 5-FU 10, CIS 2, IRINO 3 μg/mL
Procedure: A total of 1×10^4 cells were plated in 0.1 mL in 96-well flat bottom plates and incubated for 24 h before being exposed to various stimuli. After incubation for the indicated times, […] MTT solution was added to each well and incubated for 1 h. After removal of the medium, 200 μL of DMSO was added to each well to dissolve the formazan crystals. The absorbance at 540 nm was determined using a microplate reader (Bio-Tek Instruments, Inc, Winooski, Vt.). Triplicate wells were assayed for each condition.

HT-29 cells [2] = experiment: Western blotting of apoptosis markers in HT-29 cells; assay type: cell-based, human; conditions: western blot
Source text: (§1) Immunoblots were visualized by an enhanced chemiluminescence method.

[3] = system: HT-29, MDA-MB-231, A549, PC3 cells; experiment: Cleaved PARP-1 western blot in TRAIL-resistant tumor cell lines; assay type: cell-based, human; conditions: HT-29, MDA-MB-231, A549, PC3 (and HCT116 for the combination)
Source text: (§3) Anti-caspase-8 (Cell Signaling Technology, Danvers, Mass., #9746), anti-cleaved PARP-1 (Cell Signaling Technology, #5625), anti-cleaved caspase-3 (Cell Signaling Technology, #9664), anti-cleaved caspase-9 (Cell Signaling Technology, #7237), anti-CD44 (Cell Signaling Technology, #5640), anti-p-JNK (Cell Signaling Technology, #4668), anti-p-p53 (Ser15 Cell Signaling Technology, #9284), anti-BCl-2 (Cell Signaling Technology, #2870), anti-p-BCL-2 (Cell Signaling Technology, #2875), anti-BCL-XL (Cell Signaling Technology, #2764), anti-DR4 (Abcam, Cambridge, Mass., #13890), anti-DR5 (Abcam, #47179), anti-c-Jun (Santa Cruz Biotechnology, Santa Cruz, Calif., sc-1694), or anti-β-actin (sc-47778) were used in the Western blot analysis. In generally, cells were lysed and sonicated briefly in ice-cold PBS buffer (1 mM PMSF, and 1 μg/ml each of aprotinin, leupeptin, and pepstatin A). Cell lysates were clarified by centrifugation, resolved by SDS-PAGE, and proteins on gels were transferred to nitrocellulose (Bio-Rad, Hercules, Calif.) using a semidry blotter (Bio-Rad). The membrane was blocked with 3% BSA in TBST (10 mM Tris-Cl, pH 8.0, 150 mM NaCl, 0.05% Tween-20) and incubated overnight at 4° C. with primary antibodies. Immunoblots were visualized by an enhanced chemiluminescence method.

DR4 [4] = conditions: HT-29 cells, DOX 24 h, qPCR
Procedure: (§2) Total cellular RNA was purified from HT-29 cells using Trizol reagent (Life Technology) and subjected to amplification with SuperScript One-Step RT-PCR system (Life Technology). Real-time PCR was carried out using a StepOne™ Real-Time PCR System according to the manufacturer instructions (Life Technology). The mean cycle threshold value (Ct) from triplicate samples was used to calculate the gene expression. β-actin was used as an internal control to normalize the variability in expression.

DR5 [5] = conditions: HT-29 cells, DOX 24 h, qPCR
Procedure: as §2

DR5 [6] = experiment: Western blot of DR5 protein in HT-29 cells; assay type: cell-based, human; conditions: DOX 2 μg/mL, regardless of TRAILPEG
Source text: as §1

[7] = DOX distribution in HT-29 xenograft tumors; assay type: in vivo, mice; conditions: HT-29 xenografts, single i.v. 7 mg/kg DOX-based
Procedure: Mice bearing HT-29 xenograft tumors were intravenously administered with DOX (7 mg/kg) and HAC/DOX (containing 7 mg/kg equivalent doxorubicin) when tumors reached 300 mm^3. At each selected time point, 3 mice in one group were euthanized by cervical dislocation. Whole blood was collected via cardiac puncture with a heparinized syringe. Tumors were dissected out and frozen at −70° C. immediately. Plasma samples were isolated from whole blood by centrifugation at 3000 g for 5 min. Tissues homogenates were prepared in 800 μL water using a Polytron homogenizer (Brinkman Instruments, Mississauga, Ontario, Canada), and then 200 μL of H2SO4 was added to the tissue homogenates. The solutions were then digested for 2 h at 60° C. After the vials cooled to room temperature, 100 μL of AgNO3 was added. Then the samples were centrifuged at 12,000 g for 10 min, and the supernatant was counted in a fluorospectrometer (RF-5301, Shimadzu) at an excitation wavelength of 500 nm and emission wavelength of 558 nm. The concentration of doxorubicin in each tissue was calculated based on a calibration curve. The calibration curve was linear over the 0.02 and 2.00 μg/mL range with a correlation coefficient of R^2=0.9993.

Casp-8, Casp-3 = experiment: Western blot of cleaved caspases in HT-29 tumors in vivo; design: species or system mice; conditions: followed by TRAILPEG, HT-29 xenografts
Source text: as §1

[8] = Survival of HT-29 xenograft mice during treatment; assay type: in vivo, BALB/c athymic mice; conditions: high dose 7 mg/kg free DOX (with TRAILPEG), HT-29 xenografts
Procedure: The antitumor effects of […] after HAC/DOX sensitizing were investigated in HT-29 tumor bearing mice (n=5). Briefly, freshly harvested HT-29 cells (5×10^6 cells/mouse) were inoculated s.c. into BALB/c athymic mice. Treatment was initiated when the tumors reached a mean volume of 150 mm^3. Mice were treated with three rounds of DOX or HAC/DOX (7 mg/kg, i.v.) combined with […] (8 mg/kg, i.v.) for 10 days. The tumors were analyzed and calculated as described above. (n=5).

DR4 [9] = conditions: HT-29 cells, DOX 2 μg/mL
Source text: as §3

[10] = rodents; cited from earlier work
[11] = humans; cited from earlier work

Oc1c2ccccc2c2c3c(cccc13)N=N2 [SP600125]
reduction of DOX and TRAILPEG-induced cell death (HT-29 cells [1]; SP600125 20 μM pre-treatment): 35%

COc1cccc2c1C(=O)c1c(O)c3c(c(O)c1C2=O)C[C@@](O)(C(=O)CO)C[C@@H]3O[C@H]1C[C@H](N)[C@H](O)[C@H](C)O1 [DOX, doxorubicin]
apoptosis as relative cell death, low doses (HT-29 cells [1]): did not induce apoptosis
TRAIL-induced apoptosis, sub-lethal dose combined with TRAILPEG versus drug alone (HT-29 cells [1]): enhanced TRAIL-induced apoptosis was observed
phosphorylation of p53 and activation of c-jun (HT-29 cells [2]): led to the phosphorylation of p53 and the activation of c-jun
cleaved PARP-1 expression [3]: induced low levels of cleaved PARP-1
DR4 mRNA levels (DR4 [4]): did not change
increase of DR5 mRNA compared to untreated cells (DR5 [5]): 60%
upregulation of DR5 expression at the protein level (DR5 [6]): 3 to 4 fold
DOX concentration in tumor over time [7]: gradually decreased with time
Casp-3 activation vs. control (Casp-8, Casp-3; high dose 7 mg/kg DOX-based): 2 fold
Casp-3 activation vs. control (Casp-8, Casp-3; low dose 2 mg/kg DOX-based): 2 fold
mice died during the treatment cycle [8]: 60%
upregulation of DR4 expression at the protein level (DR4 [9]): not DR4

CCc1c2c(nc3ccc(OC(=O)N4CCC(N5CCCCC5)CC4)cc13)-c1cc3c(c(=O)n1C2)COC(=O)[C@]3(O)CC [IRINO, irinotecan]
apoptosis as relative cell death, low doses (HT-29 cells [1]): did not induce apoptosis
TRAIL-induced apoptosis, sub-lethal dose combined with TRAILPEG versus drug alone (HT-29 cells [1]): enhanced TRAIL-induced apoptosis was observed

rhTRAIL: recombinant human tumor necrosis factor (TNF)-related apoptosis inducing ligand
half-life in physiological conditions [10]: 3-5 min
half-life in physiological conditions [11]: less than 30 minutes

O=c1[nH]cc(F)c(=O)[nH]1 [5-FU, 5-fluorouracil]
apoptosis as relative cell death, low doses (HT-29 cells [1]): did not induce apoptosis
TRAIL-induced apoptosis, sub-lethal dose combined with TRAILPEG versus drug alone (HT-29 cells [1]): enhanced TRAIL-induced apoptosis was observed
